Source: US5847159A, “1-[ω-(3,4-dihydro-2-naphthalenyl)alkyl]-cyclic amine derivatives, process for preparing the same, and pharmaceutical composition containing the same” (priority 1995, dated 1998)

Experiments:
[1] = system: dopamine receptor; conditions: in vitro; cited from earlier work
[2] = system: rhythmic bladder contractions (micturition reflex); assay: Inhibitory effect on rhythmic bladder contractions (micturition reflex); type: in vivo, Female Std-Wistar rats; conditions: i.d., rat; for ED50: 2 h, two hours, read-out: ED50, inhibitory effect on contractile frequency; for Potency on frequency of rhythmic bladder contractions relative to inaperisone hydrochloride (Compound A): compared with Compound A
Protocol: Inhibitory effect on rhythmic bladder contractions (micturition reflex)
The experiment was carried out according to the method of Maggi, C. […] It is generally accepted that the rhythmic bladder contractions evoked by instillation of saline solution into the bladder are mediated via the micturition reflex pathway like that of natural urination.
Female Std-Wistar rats weighing 160-190 g were used in groups of 3-4 animals. Under urethane anesthesia (1 g/kg, s.c.), both ureters were tied and cut at the side of kidney after a mid line incision of the abdomen. A cannula, connected to a syringe and a pressure transducer, was inserted into the bladder via the external urethral orifice and ligated around the proximal urethra. The animal was allowed to stay for about 30 minutes after the operation. The bladder was slowly filled with warm saline solution (0.4-1 ml) by means of a syringe until rhythmic contractions were induced. The change of the intravesical pressure was recorded on a recorder via a pressure transducer. After the rhythmic contractions became constant, test compounds dissolved or suspended in 0.5% aqueous tragacanth solution were administered via the cannula inserted for intraduodenal administration. The effect of each compound on the contractile frequency was investigated every 15 minutes till two hours after the administration.
The inhibitory rate on the contractile frequency (two hours) was expressed as the mean value of the inhibitory rates at an every 15-minute interval for two hours after the administration, which was determined based on the contractile frequency for 15 minutes before the administration.

[3] = system: bladder contractions induced by stimulation of the pelvic nerve, peripheral cut end; assay: Effect on the bladder contractions induced by stimulation of the pelvic nerve (peripheral cut end); type: in vivo, Male Std-Wistar rats; conditions: 5 mg/kg i.v. (jugular vein), mean±SEM; for Inhibitory rate on the contraction caused by the stimulation of the peripheral cut end, 10 min. / Inhibitory rate on the contraction caused by the stimulation of the peripheral cut end, 20 min.: * p<0.05
Text: (§1) Effect on the bladder contractions induced by stimulation of the pelvic nerve
(§2) Male Std-Wistar rats weighing 250-350 g were used. Under urethane anesthesia (1 g/kg, i.p.), both ureters were tied and cut at the side of kidney after a mid line incision of the abdomen. When the peripheral end of the pelvic nerve was stimulated, one side of the pelvic nerve was cut. When the central cut end of the nerve was stimulated, one side of the pelvic nerve was cut like in the peripheral end stimulation after both the hypogastric nerves were cut. Then, the bladder was exposed, the cannula connected to a syringe and a pressure transducer was inserted into the bladder via a small incision at an apex of the dome, and the proximal urethra was then ligated. Fifteen minutes after the operation, warm saline solution of an amount (0.1-0.2 ml) being small enough not to cause rhythmic contraction was infused into the bladder using a syringe. The change of the intravesical pressure was recorded on a recorder via a pressure transducer. The pelvic nerve was stimulated at the peripheral cut end or the central one by a pair of platinum electrodes with pulse of 1 msec duration, 3 v strength and a frequency of 10 Hz (for peripheral) or 5 v strength and a frequency of 20 Hz (for central), for 5 seconds every 2 minutes. Test compounds dissolved in distilled water were injected at a dose of 5 mg/kg via the cannula inserted into the jugular vein.
(§3) Each value in the table is mean±standard error of mean in 3-4 animals.

[4] = system: bladder contractions induced by stimulation of the pelvic nerve, central cut end; assay: Effect on the bladder contractions induced by stimulation of the pelvic nerve (central cut end); type: in vivo, Male Std-Wistar rats; conditions: for Inhibitory rate on the contraction caused by the stimulation of the central cut end, 2 min. / Inhibitory rate on the contraction caused by the stimulation of the central cut end, 4 min. / Inhibitory rate on the contraction caused by the stimulation of the central cut end, 10 min. / Inhibitory rate on the contraction caused by the stimulation of the central cut end, 20 min.: 5 mg/kg i.v. (jugular vein), mean±SEM; for Inhibitory rate on the contraction caused by the stimulation of the central cut end, 2 min.: * p<0.05; for Inhibitory rate on the contraction caused by the stimulation of the central cut end, 4 min. / Inhibitory rate on the contraction caused by the stimulation of the central cut end, 20 min.: * p<0.05, ** <0.01; for Inhibitory rate on the contraction caused by the stimulation of the central cut end, 10 min.: ** <0.01; for Effect on contractions by stimulation of central cut end compared with peripheral cut end: 5 mg/kg i.v., rat
Text: as §1, §2, §3

[5] = system: exploratory behavior; assay: Inhibitory effect on exploratory behavior; type: in vivo, Male Std-Wistar rats; conditions: 500 mg/kg p.o., rat; for Inhibitory rate, exploratory behavior: one hour after administration
Protocol: Inhibitory effect on exploratory behavior
Male Std-Wistar rats weighing 150-200 g were used in groups of 5 animals. One hour after oral administration of test compounds suspended in 0.5% aqueous tragacanth solution, animals were individually placed in a test cage (23×35×30 cm) on an Animex activity meter (Farad Co., Sweden). Immediately thereafter, locomotor counting was started and lasted for three minutes. The mean value of the exploratory behavior (count/3 minutes) in the test compound-treated groups were determined, and then inhibitory effect of each test compound was calculated as compared with that of the control group (0.5% aqueous tragacanth solution-treated group). The results are shown in Table 5 along with the results of Experiments 4 and 5.

[6] = system: polysynaptic spinal reflex; assay: Inhibitory effect on polysynaptic spinal reflex; type: in vivo, Male Std-Wistar rats; conditions: rat; for ED50: iv, read-out: Inhibitory effect on polysynaptic spinal reflex, ID50; for Inhibitory effect on spinal reflex compared with Compound A: i.v.
Protocol: Inhibitory effect on polysynaptic spinal reflex
The experiment was performed according to the method of Itoh, et al. [Japan J. Parmacol.,23, 1125 (1982)]. Male Std-Wistar rats weighing 250-350 g were used in groups of 4-6 animals. Under anesthesia with combined i.p. injection of urethane (400 mg/kg) and α-chloralose (50 mg/kg), the rat fixed in a stereotaxic apparatus was clamped at the spine and tibial bane. A concentric needle electrode was inserted into the left gastrocnemius muscle, and the central end of the ipsilateral common peroneal nerve at the same side was supramaximally stimulated by an electrical stimulator (rectangular pulse,0.1 msec,0.1 Hz). Test compounds dissolved in distilled water were injected via a cannula inserted into the right femoral vein, and the evoked electromyogram was periodically recorded (2, 5, 10, 20 and 30 minutes after the injection). […] The results are shown in Table 5 along with the results of Experiments 3 and 5.

[7] = system: neurogenic bladder, unstable bladder, and nervous pollakisuria; conditions: Nishinihon J. Urol., 54, 1472 and 1820 (1992); cited from earlier work
[8] = in vivo; conditions: in vivo, po; mouse; 7 days; read-out: Acute toxicity LD50
Text: (§4) Male ddY mice weighing 18-25 g were used in groups of 5-15 animals. Test compounds suspended in 0.5% aqueous tragacanth solution were given orally, and the mortality was investigated for 7 days following administration.

[9] = system: Male ddY mice; assay: in vivo; conditions: p.o.; mouse
Text: as §4

[10] = system: rhythmic bladder contractions (micturition reflex); assay: Inhibitory effect on rhythmic bladder contractions (micturition reflex); type: in vivo, Female Std-Wistar rats; conditions: judged from Experiments 1, 3, 4 and 5

SMILES | ED50 [2] [mg/kg] | Inhibitory rate on the contraction caused by the stimulation of the peripheral cut end, 2 min. [3] [%] | Inhibitory rate on the contraction caused by the stimulation of the peripheral cut end, 4 min. [3] [%] | Inhibitory rate on the contraction caused by the stimulation of the peripheral cut end, 10 min. [3] [%] | Inhibitory rate on the contraction caused by the stimulation of the peripheral cut end, 20 min. [3] [%] | Inhibitory rate on the contraction caused by the stimulation of the central cut end, 2 min. [4] [%] | Inhibitory rate on the contraction caused by the stimulation of the central cut end, 4 min. [4] [%] | Inhibitory rate on the contraction caused by the stimulation of the central cut end, 10 min. [4] [%] | Inhibitory rate on the contraction caused by the stimulation of the central cut end, 20 min. [4] [%] | Inhibitory rate, exploratory behavior [5] [%] | ED50 [6] [mg/kg] | Potency on frequency of rhythmic bladder contractions relative to inaperisone hydrochloride (Compound A) [2] | Effect on contractions by stimulation of central cut end compared with peripheral cut end [4] | Inhibitory effect on exploratory behavior compared with Compound A [5] | Inhibitory effect on spinal reflex compared with Compound A [6] | LD50 at 168 h [8] [mg/kg] | Acute toxicity compared with Compound A [9] | Separation of effect on micturition reflex from side effects (central depression, inhibition of spinal reflex) and toxicity, in comparison with Compound A [10] | other results
C1=C(CCN2CCCCC2)CCc2ccccc21.Cl [1-[2-(3,4-dihydro-2-naphthalenyl)ethyl]piperidine hydrochloride] | – | – | – | – | – | – | – | – | – | – | – | – | – | – | – | – | – | – | Affinity for dopamine receptor [1]: quite low affinity
CCc1ccc(C(=O)C(C)CN2CCCC2)cc1.Cl (centres unmarked) [Compound A, 1-(4-ethylphenyl)-2-methyl-3-(1-pyrrolidinyl)-1-propanone hydrochloride, reference compound] | 34.8 | 6.2 ± 5.1 | 14.7 ± 4.0 | 25.1 ± 4.2 | 31.6 ± 2.5 | 21.0 ± 10.7 | 22.5 ± 7.3 | 29.3 ± 7.7 | 40.6 ± 8.8 | 28.3 | 4.22 | – | – | – | – | – | – | – | Efficacy for neurogenic bladder, unstable bladder, nervous pollakisuria [7]: effective for the symptoms such as neurogenic bladder, unstable bladder, and nervous pollakisuria
Fc1cccc2c1CCC(CCN1CCCC1)=C2 [Ex. 1, 1-[2-(5-fluoro-3,4-dihydro-2-naphthalenyl)ethyl]-pyrrolidine] | 4.3 | 4.4 ± 4.4 | 3.4 ± 4.4 | 3.2 ± 7.5 | 9.6 ± 8.6 | 26.3 ± 10.0 | 27.6 ± 5.6 | 36.8 ± 10.1 | 44.1 ± 5.8 | 16.2 | > 10 | about 8 times more potent | more potent than those on the contractions induced by the stimulation of peripheral cut end | less potent than that of Compound A | much weaker than that of Compound A | 556 | also lower than that of Compound A | extremely separated from side effects | –
Cc1cc2c(cc1C)CCC(CCN1CCCC1)=C2 [Ex. 2, 1-[2-(3,4-dihydro-6,7-dimethyl-2-naphthalenyl)ethyl]-pyrrolidine] | 4.4 | 0.4 ± 5.2 | 16.3 ± 7.0 | 13.7 ± 4.5 | 19.0 ± 7.5 | 13.3 ± 5.1 | 17.7 ± 2.8 | 25.6 ± 3.7 | 24.9 ± 4.1 | 0 | > 8 | about 8 times more potent | more potent than those on the contractions induced by the stimulation of peripheral cut end | less potent than that of Compound A | much weaker than that of Compound A | 620 | also lower than that of Compound A | extremely separated from side effects | Effect on the amplitude of contraction [2]: suppressed the amplitude of contraction
Cc1cc2c(cc1C)CCC(CCN1CCCCC1)=C2 [Ex. 43, 1-[2-(3,4-dihydro-6,7-dimethyl-2-naphthalenyl)ethyl]piperidine] | 11.1 | 2.4 ± 3.3 | 5.8 ± 6.3 | 6.3 ± 8.1 | 17.2 ± 12.2 | 6.0 ± 10.8 | 22.8 ± 9.7 | 28.3 ± 4.0 | 37.3 ± 5.0 | 20.0 | 3.82 | ~3 times more potent | more potent than those on the contractions induced by the stimulation of peripheral cut end | almost equal to that of Compound A | nearly equal to that of Compound A | 1040 | about twice lower than that of Compound A | extremely separated from side effects | –
